This is an account of results in ChEMBL document CHEMBL5465560, “Selectivity Literature for EUbOPEN Chemogenomic Library” (2024).

Assay [1] addresses Serine/threonine-protein kinase pim-3 (Homo sapiens) (UniProt Q86V86). Description: Selectivity interaction (KinomeScan (DiscoverX)) EUB0000595a PIM3. As to conditions: at 10 µM.
The target of assay [2] is Proto-oncogene tyrosine-protein kinase ROS (Homo sapiens) (UniProt P08922). Description: Selectivity interaction (KinomeScan (DiscoverX)) EUB0000666a ROS1. The following applies: at 10 µM.
Chain of Proto-oncogene tyrosine-protein kinase ROS (Homo sapiens) (P08922 whole entry): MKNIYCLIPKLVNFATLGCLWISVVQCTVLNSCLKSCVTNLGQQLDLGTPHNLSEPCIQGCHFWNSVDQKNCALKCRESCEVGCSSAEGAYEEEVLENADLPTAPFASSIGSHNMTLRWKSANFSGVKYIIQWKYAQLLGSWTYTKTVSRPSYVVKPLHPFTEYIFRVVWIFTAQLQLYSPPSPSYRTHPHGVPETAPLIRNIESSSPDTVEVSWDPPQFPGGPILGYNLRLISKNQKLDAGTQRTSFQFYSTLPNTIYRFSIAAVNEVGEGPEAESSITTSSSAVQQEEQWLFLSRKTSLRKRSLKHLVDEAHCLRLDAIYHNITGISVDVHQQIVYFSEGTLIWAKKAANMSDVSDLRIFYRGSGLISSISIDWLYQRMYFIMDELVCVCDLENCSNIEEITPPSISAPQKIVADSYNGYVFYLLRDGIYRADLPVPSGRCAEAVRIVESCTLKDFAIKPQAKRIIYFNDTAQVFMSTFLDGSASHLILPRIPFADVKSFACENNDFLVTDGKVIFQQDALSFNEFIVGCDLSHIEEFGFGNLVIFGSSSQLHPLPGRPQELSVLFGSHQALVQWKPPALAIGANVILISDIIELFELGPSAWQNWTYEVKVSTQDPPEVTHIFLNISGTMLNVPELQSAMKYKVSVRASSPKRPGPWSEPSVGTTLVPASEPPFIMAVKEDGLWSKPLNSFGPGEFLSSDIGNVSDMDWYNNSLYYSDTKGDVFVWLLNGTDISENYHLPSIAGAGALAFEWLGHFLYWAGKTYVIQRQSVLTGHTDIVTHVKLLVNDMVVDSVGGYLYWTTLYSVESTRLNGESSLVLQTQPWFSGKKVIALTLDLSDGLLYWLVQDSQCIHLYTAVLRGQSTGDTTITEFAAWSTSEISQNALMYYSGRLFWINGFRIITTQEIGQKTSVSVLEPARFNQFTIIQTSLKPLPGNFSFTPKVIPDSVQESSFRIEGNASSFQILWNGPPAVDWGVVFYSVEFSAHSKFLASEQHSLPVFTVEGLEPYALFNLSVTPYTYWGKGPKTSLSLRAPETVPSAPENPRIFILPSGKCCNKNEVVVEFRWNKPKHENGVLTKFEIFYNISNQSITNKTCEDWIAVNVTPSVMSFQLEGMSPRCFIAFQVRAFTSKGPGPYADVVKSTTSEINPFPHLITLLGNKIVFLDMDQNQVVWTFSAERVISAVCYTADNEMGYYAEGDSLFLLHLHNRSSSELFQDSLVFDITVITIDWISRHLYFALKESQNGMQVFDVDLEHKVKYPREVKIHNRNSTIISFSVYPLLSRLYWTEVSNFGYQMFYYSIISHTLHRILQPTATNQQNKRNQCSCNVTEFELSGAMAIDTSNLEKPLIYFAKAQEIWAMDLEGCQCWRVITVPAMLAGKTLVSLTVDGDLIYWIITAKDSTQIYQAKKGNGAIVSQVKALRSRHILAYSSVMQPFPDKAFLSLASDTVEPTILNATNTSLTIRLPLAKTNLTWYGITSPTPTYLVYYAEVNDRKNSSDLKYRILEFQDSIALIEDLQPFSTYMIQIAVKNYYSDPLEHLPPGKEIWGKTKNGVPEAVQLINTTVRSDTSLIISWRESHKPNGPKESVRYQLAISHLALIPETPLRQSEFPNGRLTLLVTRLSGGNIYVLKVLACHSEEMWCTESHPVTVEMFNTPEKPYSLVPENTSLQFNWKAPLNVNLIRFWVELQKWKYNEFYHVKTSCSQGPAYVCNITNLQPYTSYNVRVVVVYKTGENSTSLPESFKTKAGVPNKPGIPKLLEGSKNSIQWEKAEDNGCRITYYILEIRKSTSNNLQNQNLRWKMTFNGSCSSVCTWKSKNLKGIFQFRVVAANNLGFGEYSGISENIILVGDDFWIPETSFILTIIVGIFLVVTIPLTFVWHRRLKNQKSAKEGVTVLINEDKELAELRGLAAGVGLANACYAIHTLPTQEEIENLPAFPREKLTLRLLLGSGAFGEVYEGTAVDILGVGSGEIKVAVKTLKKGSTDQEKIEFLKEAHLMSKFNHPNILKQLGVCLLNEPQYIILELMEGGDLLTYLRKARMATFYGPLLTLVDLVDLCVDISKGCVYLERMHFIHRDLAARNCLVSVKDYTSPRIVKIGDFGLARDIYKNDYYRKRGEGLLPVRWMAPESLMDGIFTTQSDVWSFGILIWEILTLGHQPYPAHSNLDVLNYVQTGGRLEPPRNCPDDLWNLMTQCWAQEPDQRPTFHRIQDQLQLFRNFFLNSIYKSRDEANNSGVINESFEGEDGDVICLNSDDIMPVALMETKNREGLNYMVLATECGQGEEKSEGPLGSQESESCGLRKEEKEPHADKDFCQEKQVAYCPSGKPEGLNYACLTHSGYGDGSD
Assay [3] deals with T1, cGMP-dependent protein kinase 2 (Homo sapiens) (UniProt Q13237).
T1 sequence (whole entry): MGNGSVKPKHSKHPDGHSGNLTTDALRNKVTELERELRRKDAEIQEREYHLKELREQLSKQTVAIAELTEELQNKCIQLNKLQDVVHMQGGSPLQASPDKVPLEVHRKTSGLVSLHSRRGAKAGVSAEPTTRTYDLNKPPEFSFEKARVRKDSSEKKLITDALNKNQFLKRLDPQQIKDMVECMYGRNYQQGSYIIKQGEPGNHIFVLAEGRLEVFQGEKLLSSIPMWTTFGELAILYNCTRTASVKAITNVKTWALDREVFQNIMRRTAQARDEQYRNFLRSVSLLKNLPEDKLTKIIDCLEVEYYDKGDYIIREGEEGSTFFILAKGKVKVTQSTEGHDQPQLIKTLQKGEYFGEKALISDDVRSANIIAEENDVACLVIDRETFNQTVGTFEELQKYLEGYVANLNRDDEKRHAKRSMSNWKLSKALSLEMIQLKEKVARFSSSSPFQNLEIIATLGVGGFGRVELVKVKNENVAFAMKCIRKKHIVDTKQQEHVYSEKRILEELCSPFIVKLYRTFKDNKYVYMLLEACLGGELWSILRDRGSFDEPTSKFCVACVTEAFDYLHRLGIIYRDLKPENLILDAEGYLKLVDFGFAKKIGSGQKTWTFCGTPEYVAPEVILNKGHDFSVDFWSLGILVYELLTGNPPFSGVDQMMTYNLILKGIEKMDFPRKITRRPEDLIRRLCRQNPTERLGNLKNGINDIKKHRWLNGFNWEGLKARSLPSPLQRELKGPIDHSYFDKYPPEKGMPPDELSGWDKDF
The assay is described as follows: Selectivity interaction (KinomeScan (DiscoverX)) EUB0000607a PRKG2. As to conditions: at 10 µM.

Assay [4] deals with Fibroblast growth factor receptor 3 (Homo sapiens, UniProt P22607). As to conditions: at 10 µM.
Assay [5] addresses Calcium/calmodulin-dependent protein kinase type II subunit delta (Homo sapiens) (UniProt Q13557). The assay is described as follows: Selectivity interaction (ActivX KiNativ screen (kinase selectivity in THP-1 cell lysates)) EUB0000639a CAMK2D. It is filed as subcellular. The following applies: lysate, at 0.2 µM.
Assay [6] addresses Non-receptor tyrosine-protein kinase TYK2 (Homo sapiens, UniProt P29597). Description: Selectivity interaction (ActivX KiNativ screen (kinase selectivity in THP-1 cell lysates)) EUB0000639a TYK2. It is filed as subcellular. As to conditions: lysate, at 0.01 µM.
Assay [7] deals with Serine/threonine-protein kinase 10 (Homo sapiens) (UniProt O94804). The assay is described as follows: Selectivity interaction (ActivX KiNativ screen (kinase selectivity in THP-1 cell lysates)) EUB0000639a STK10. It is filed as subcellular. As to conditions: lysate, at 0.04 µM.
In assay [8] the target is T2, Dual specificity mitogen-activated protein kinase kinase 5 (Homo sapiens) (UniProt Q13163).
T2 sequence (whole entry): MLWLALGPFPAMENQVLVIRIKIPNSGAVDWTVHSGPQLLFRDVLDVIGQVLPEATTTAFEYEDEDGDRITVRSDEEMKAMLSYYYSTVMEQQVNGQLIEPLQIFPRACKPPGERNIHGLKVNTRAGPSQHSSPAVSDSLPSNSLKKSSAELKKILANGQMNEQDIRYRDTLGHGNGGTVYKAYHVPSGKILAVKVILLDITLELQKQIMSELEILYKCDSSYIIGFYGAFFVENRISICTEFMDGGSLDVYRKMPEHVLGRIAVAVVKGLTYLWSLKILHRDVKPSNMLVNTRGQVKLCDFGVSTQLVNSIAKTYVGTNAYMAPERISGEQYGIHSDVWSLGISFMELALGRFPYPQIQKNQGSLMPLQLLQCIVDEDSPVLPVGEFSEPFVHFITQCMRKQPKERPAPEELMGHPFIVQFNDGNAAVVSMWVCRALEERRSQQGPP
Description: Selectivity interaction (KinomeScan (DiscoverX)) EUB0000045b MAP2K5.

Assay [9] has as its target Activin receptor type-1-like (Homo sapiens) (UniProt P37023). Description: Selectivity interaction (ProQinase) EUB0000171b ACVRL1.
Assay [10] has as its target Serine/threonine-protein kinase Nek7 (Homo sapiens) (UniProt Q8TDX7). Description: Selectivity interaction (Upstate Kinase Profiler service (Millipore)) EUB0000056c NEK7. The following applies: at 1 µM.
Assay [11] addresses Serine/threonine-protein kinase 35 (Homo sapiens) (UniProt Q8TDR2). Description: Selectivity interaction (KinomeScan (DiscoverX)) EUB0000092b STK35. The following applies: at 10 µM.
Assay [12] addresses T3, Serine/threonine-protein kinase D3 (Homo sapiens) (UniProt O94806).
T3 sequence (whole entry): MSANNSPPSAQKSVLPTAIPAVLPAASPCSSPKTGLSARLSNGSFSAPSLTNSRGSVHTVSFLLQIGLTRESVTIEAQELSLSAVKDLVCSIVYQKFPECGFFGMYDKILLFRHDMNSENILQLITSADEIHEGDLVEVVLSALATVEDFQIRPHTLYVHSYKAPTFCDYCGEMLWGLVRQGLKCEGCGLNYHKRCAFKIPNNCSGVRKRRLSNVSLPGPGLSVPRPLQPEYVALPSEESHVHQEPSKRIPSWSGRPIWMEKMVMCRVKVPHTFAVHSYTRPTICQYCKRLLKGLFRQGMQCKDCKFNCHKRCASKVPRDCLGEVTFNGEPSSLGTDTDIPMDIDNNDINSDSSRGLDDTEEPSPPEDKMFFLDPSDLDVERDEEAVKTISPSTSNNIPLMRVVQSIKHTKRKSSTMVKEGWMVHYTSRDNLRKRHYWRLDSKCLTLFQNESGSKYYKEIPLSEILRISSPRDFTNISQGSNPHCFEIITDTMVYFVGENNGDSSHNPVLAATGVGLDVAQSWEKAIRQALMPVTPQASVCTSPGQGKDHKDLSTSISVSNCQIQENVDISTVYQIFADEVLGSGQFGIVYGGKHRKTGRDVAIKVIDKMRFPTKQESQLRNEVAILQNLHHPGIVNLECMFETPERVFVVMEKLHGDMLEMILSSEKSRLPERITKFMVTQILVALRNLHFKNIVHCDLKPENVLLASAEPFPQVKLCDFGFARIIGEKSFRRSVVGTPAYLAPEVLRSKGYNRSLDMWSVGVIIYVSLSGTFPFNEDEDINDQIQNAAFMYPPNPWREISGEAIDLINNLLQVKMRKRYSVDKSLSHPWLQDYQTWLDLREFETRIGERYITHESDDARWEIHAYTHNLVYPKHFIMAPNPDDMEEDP
The assay is described as follows: Selectivity interaction (KinomeScan (DiscoverX)) EUB0000229b PRKD3. As to conditions: at 10 µM.

In assay [13] the target is RAC-alpha serine/threonine-protein kinase (Homo sapiens, UniProt P31749). Description: Selectivity interaction (Kinase panel (KiNativ target engagement assay in Jurkat cells)) EUB0001635a AKT1. As to conditions: at 1 µM. It is filed as cell-based.

Chain of Activin receptor type-1-like (Homo sapiens) (P37023 whole entry): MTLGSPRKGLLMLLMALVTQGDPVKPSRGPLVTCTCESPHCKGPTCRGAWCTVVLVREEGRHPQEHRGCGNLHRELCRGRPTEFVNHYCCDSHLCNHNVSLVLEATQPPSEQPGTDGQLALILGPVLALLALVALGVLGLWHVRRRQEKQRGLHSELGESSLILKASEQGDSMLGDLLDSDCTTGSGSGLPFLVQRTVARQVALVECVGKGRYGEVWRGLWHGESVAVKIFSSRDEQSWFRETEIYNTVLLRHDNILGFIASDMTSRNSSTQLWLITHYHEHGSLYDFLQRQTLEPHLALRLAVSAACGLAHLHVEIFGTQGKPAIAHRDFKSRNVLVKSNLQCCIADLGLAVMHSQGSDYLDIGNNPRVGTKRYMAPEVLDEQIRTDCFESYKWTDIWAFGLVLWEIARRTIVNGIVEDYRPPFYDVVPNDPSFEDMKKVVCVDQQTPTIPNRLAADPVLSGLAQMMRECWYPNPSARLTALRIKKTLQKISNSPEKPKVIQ
Chain of Non-receptor tyrosine-protein kinase TYK2 (P29597 whole entry): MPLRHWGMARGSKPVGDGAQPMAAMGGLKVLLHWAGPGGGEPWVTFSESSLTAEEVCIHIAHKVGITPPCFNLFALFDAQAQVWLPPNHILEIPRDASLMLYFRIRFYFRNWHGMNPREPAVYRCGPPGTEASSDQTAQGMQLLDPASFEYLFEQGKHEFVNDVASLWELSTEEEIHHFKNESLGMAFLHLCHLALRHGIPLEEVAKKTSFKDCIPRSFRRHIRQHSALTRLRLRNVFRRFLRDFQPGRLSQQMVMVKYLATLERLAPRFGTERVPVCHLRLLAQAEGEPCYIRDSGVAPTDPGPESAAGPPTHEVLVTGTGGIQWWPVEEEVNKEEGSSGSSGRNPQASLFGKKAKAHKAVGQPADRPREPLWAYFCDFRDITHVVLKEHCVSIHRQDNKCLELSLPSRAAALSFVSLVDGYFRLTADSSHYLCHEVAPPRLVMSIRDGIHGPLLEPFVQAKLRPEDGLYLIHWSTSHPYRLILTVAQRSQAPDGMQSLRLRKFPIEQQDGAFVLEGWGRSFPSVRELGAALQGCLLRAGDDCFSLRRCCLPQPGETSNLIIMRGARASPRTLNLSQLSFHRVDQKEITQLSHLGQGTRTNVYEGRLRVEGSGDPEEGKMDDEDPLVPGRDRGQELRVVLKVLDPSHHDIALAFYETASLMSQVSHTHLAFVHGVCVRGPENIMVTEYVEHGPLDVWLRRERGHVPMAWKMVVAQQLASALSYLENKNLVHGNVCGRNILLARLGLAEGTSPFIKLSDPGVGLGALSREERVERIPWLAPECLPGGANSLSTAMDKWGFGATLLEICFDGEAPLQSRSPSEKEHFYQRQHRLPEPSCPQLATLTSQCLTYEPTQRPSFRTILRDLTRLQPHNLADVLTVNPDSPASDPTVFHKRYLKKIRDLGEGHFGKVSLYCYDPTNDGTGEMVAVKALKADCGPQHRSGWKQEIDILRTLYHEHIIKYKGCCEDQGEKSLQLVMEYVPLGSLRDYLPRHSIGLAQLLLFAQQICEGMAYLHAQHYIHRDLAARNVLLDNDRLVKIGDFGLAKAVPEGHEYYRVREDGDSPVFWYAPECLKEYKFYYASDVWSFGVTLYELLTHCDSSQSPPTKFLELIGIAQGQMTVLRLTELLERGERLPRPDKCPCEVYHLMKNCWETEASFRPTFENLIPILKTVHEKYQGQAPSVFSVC
Chain of Serine/threonine-protein kinase Nek7 (Homo sapiens) (Q8TDX7 whole entry, looked up): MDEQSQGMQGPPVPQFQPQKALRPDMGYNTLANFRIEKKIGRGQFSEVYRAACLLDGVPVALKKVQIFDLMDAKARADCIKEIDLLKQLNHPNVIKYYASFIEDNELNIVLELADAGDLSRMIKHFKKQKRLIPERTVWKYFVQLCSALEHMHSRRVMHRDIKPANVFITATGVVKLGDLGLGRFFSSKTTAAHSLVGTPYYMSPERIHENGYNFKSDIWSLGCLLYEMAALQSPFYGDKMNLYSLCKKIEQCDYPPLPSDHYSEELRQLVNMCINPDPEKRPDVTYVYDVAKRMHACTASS

On to `COCC(=O)NC/C=C/c1ccc2ncnc(Nc3ccc(Oc4ccc(C)nc4)c(C)c3)c2c1` [CP-724714], for which the % of control in assay [1] was found to be 100%. As for `O=C(NOC[C@H](O)CO)c1ccc(F)c(F)c1Nc1ccc(I)cc1F`, the % of control in assay [2] amounted to 92%.

`CNC(=O)Nc1ccc(-c2nc(N3CC4CCC(C3)O4)c3cnn(C4CCC5(CC4)OCCO5)c3n2)cc1`: the % of control in assay [3] amounted to 88%. With `Cc1cc([C@@H](C)Nc2ccccc2C(=O)O)c2nc(N3CCOCC3)cc(=O)n2c1` [AZD-6482], in assay [4], the % of control came out at 83%. As to `CC[C@@H]1[C@H](F)C(=O)N[C@@H]1COc1nccc2cc(C(N)=O)c(OC)cc12` [ZIMLOVISERTIB], the % of inhibition in assay [5] is 6.9%; in assay [6], 18.9%; in assay [7] it was -97%. Regarding `C=CC(=O)Nc1cc(-n2c(=O)ccc3cnc4ccc(-c5ccc(NS(C)(=O)=O)cc5)cc4c32)ccc1C`, the values for the % of control in [8] (at 1 µM) and in [8] (at 10 µM) were 100% and 64%, respectively. As to `C=CC(=O)Nc1cccc(C(=O)Nc2ccc(Nc3cc(-c4[nH]c(SC)nc4C)ccn3)cc2)c1`, the % of control in [9] (at 1 µM) was found to be 74%; in [9] (at 5 µM), 52%. As for `Cc1ccc(-c2ccc3c(ccc4sc5c(c43)NC[C@@H](C)NC5=O)n2)cn1`, in assay [10], the % of inhibition is -3%. The molecule `CCC(=O)N1CCN(c2ccc(-n3c(=O)ccc4cnc5ccc(-c6cnc7ccccc7c6)cc5c43)cc2C(F)(F)F)CC1` gave a % of control in [11] of 18%. For `COc1cc(N(C)c2ccnc3ccc(C(F)(F)F)cc23)cc(OC)c1OC`, the % binding in assay [12] came out at 58%.

With `C=CC(=O)Nc1ccc(C(=O)Nc2[nH]nc3c2CN(C(=O)N[C@H](CN(C)C)c2ccccc2)C3(C)C)cc1`, the % of engagement in assay [13] is -9.9%.
